Calls of active or inactive are those of the source. How the calls were made is not given here.
System: CCRIS mutagenicity, Ames/micronucleus/aberration tests
Assay: CCRIS mutagenicity studies

For `[CH3][Hg][CH3]`, the mutagenic call (End Point: IN VITRO CHROMOSOMAL ABERRATIONS, Test System: HUMAN PERIPHERAL LYMPHOCYTES, Metabolic Activation: NONE) was “active; positive (structural changes and ploidy)”, the mutagenic call (Test System: CHINESE HAMSTER G10, Strain/Indicator: G10/6-THIOGUANINE, Metabolic Activation: NONE) was “inactive; negative” and the mutagenic call (Test System: CHINESE HAMSTER G12, Strain/Indicator: G12/6-THIOGUANINE, Metabolic Activation: NONE) was “inactive; negative”. For the same compound, the mutagenic call (Test System: CHINESE HAMSTER V-79, Strain/Indicator: V-79/6-THIOGUANINE, Metabolic Activation: NONE) was “inactive; negative”.
For `CN(C)c1ccc(/C=C/c2ccccc2)cc1`, the mutagenic call (Test System: AMES SALMONELLA TYPHIMURIUM, Strain/Indicator: TA98, Metabolic Activation: HAMSTER, LIVER, S-9, AROCLOR 1254, Method: STANDARD PLATE) was “active; positive”, the mutagenic call (Test System: AMES SALMONELLA TYPHIMURIUM, Strain/Indicator: TA98, Metabolic Activation: HAMSTER, LIVER, S-9, Method: PREINCUBATION (PRIVAL METHOD)) was “active; positive” and the mutagenic call (Test System: AMES SALMONELLA TYPHIMURIUM, Strain/Indicator: TA98, Metabolic Activation: RAT, LIVER, S-9, AROCLOR 1254, HAMSTER, LIVER, S-9, AROCLOR 1254, Method: STANDARD PLATE) was “active; positive”. The mutagenic call (Test System: AMES SALMONELLA TYPHIMURIUM, Strain/Indicator: TA98, Metabolic Activation: RAT, LIVER, S-9, KC500 OR PHENOBARBITAL, Method: LIQUID SUSPENSION) was “active; positive”, the mutagenic call (Test System: AMES SALMONELLA TYPHIMURIUM, Strain/Indicator: TA100, Metabolic Activation: HAMSTER, LIVER, S-9, AROCLOR 1254 (10%), Method: STANDARD PLATE) was “active; positive” and the mutagenic call (Test System: AMES SALMONELLA TYPHIMURIUM, Strain/Indicator: TA100, Metabolic Activation: HAMSTER, LIVER, S-9, Method: PREINCUBATION (PRIVAL METHOD)) was “active; positive”. The mutagenic call (Test System: AMES SALMONELLA TYPHIMURIUM, Strain/Indicator: TA100, Metabolic Activation: RAT, LIVER, S-9, AROCLOR 1254, HAMSTER, LIVER, S-9, AROCLOR 1254, Method: STANDARD PLATE) was “active; positive”, the mutagenic call (Test System: AMES SALMONELLA TYPHIMURIUM, Strain/Indicator: TA100, Metabolic Activation: RAT, LIVER, S-9, KC500 OR PHENOBARBITAL, Method: LIQUID SUSPENSION) was “active; positive” and the mutagenic call (Test System: AMES SALMONELLA TYPHIMURIUM, Strain/Indicator: TA100, Metabolic Activation: RAT, LIVER, S-9, PHENOBARBITAL, Method: STANDARD PLATE) was “active; positive”. For the same compound, the mutagenic call (Test System: AMES SALMONELLA TYPHIMURIUM, Strain/Indicator: TA1538, Metabolic Activation: RAT, LIVER, S-9, AROCLOR 1254, HAMSTER, LIVER, S-9, AROCLOR 1254, Method: STANDARD PLATE) was “active; positive”, the mutagenic call (Test System: AMES SALMONELLA TYPHIMURIUM, Strain/Indicator: TA1538, Metabolic Activation: RAT, LIVER, S-9, PHENOBARBITAL, Method: STANDARD PLATE) was “active; positive” and the mutagenic call (Test System: Mouse lymphoma, Strain/Indicator: L5178Y (tk+/tk-), Metabolic Activation: None, Method: Suspension/plate) was “inactive; inconclusive (pevious evaluation negative)”. The mutagenic call (Test System: Mouse lymphoma, Strain/Indicator: L5178Y (tk+/tk-), Metabolic Activation: Rat, Liver, S-9, Aroclor 1254, Method: Suspension/plate) was “active; positive”.
For `O=C(O)c1ccc(N=Nc2ccc(O)c(C(=O)O)c2)cc1`, the mutagenic call (Test System: AMES SALMONELLA TYPHIMURIUM, Strain/Indicator: TA98, Metabolic Activation: NONE, Method: STANDARD PLATE) was “inactive; negative”, the mutagenic call (Test System: AMES SALMONELLA TYPHIMURIUM, Strain/Indicator: TA98, Metabolic Activation: RAT, LIVER, S-9, AROCLOR 1254, Method: STANDARD PLATE) was “inactive; negative” and the mutagenic call (Test System: AMES SALMONELLA TYPHIMURIUM, Strain/Indicator: TA100, Metabolic Activation: NONE, Method: STANDARD PLATE) was “inactive; negative”. The mutagenic call (Test System: AMES SALMONELLA TYPHIMURIUM, Strain/Indicator: TA100, Metabolic Activation: RAT, LIVER, S-9, AROCLOR 1254, Method: STANDARD PLATE) was “inactive; negative”, the mutagenic call (Test System: AMES SALMONELLA TYPHIMURIUM, Strain/Indicator: TA1535, Metabolic Activation: NONE, Method: STANDARD PLATE) was “inactive; negative” and the mutagenic call (Test System: AMES SALMONELLA TYPHIMURIUM, Strain/Indicator: TA1535, Metabolic Activation: RAT, LIVER, S-9, AROCLOR 1254, Method: STANDARD PLATE) was “inactive; negative”. For the same compound, the mutagenic call (Test System: AMES SALMONELLA TYPHIMURIUM, Strain/Indicator: TA1537, Metabolic Activation: NONE, Method: STANDARD PLATE) was “inactive; negative”, the mutagenic call (Test System: AMES SALMONELLA TYPHIMURIUM, Strain/Indicator: TA1537, Metabolic Activation: RAT, LIVER, S-9, AROCLOR 1254, Method: STANDARD PLATE) was “inactive; negative” and the mutagenic call (Test System: AMES SALMONELLA TYPHIMURIUM, Strain/Indicator: TA1538, Metabolic Activation: NONE, Method: STANDARD PLATE) was “inactive; negative”. The mutagenic call (Test System: AMES SALMONELLA TYPHIMURIUM, Strain/Indicator: TA1538, Metabolic Activation: RAT, LIVER, S-9, AROCLOR 1254, Method: STANDARD PLATE) was “inactive; negative”, the mutagenic call (Test System: CHINESE HAMSTER V-79, Strain/Indicator: V-79 (HGPRT)/8-AZAGUANINE, Metabolic Activation: NONE) was “inactive; negative” and the mutagenic call (Test System: CHINESE HAMSTER V-79, Strain/Indicator: V-79 (HGPRT)/8-AZAGUANINE, Metabolic Activation: RAT, LIVER, S-9) was “inactive; negative”.
